# Experimental data taken from ChEMBL document CHEMBL4373746, “Structural attributes influencing unbound tissue distribution” (Eur J Med Chem, 2020).
# How the values were obtained:
# [1] = Fraction unbound in Wistar Han rat plasma at 2 uM incubated for 6 hrs by equilibrium dialysis method
# [2] = Fraction unbound in Wistar Han rat white adipose tissue at 2 uM incubated for 6 hrs by equilibrium dialysis method
# [3] = Fraction unbound in Wistar Han rat brain at 2 uM incubated for 6 hrs by equilibrium dialysis method
# [4] = Fraction unbound in Wistar Han rat heart at 2 uM incubated for 6 hrs by equilibrium dialysis method
# [5] = Fraction unbound in Wistar Han rat liver at 2 uM incubated for 6 hrs by equilibrium dialysis method
# [6] = Fraction unbound in Wistar Han rat skeletal muscle at 2 uM incubated for 6 hrs by equilibrium dialysis method
# [7] = Total plasma concentration in Wistar Han rat at 1 to 2 mg/kg, iv infused for 10 to 20 hrs by LC-MS/MS analysis; conditions: in vivo
# [8] = Drug concentration in total white adipose tissue in Wistar Han rat at 1 to 2 mg/kg, iv infused for 10 to 20 hrs by LC-MS/MS analysis; conditions: in vivo
# [9] = Drug concentration in total brain in Wistar Han rat at 1 to 2 mg/kg, iv infused for 10 to 20 hrs by LC-MS/MS analysis; conditions: in vivo
# [10] = Drug concentration in total heart in Wistar Han rat at 1 to 2 mg/kg, iv infused for 10 to 20 hrs by LC-MS/MS analysis; conditions: in vivo
# [11] = Drug concentration in total liver in Wistar Han rat at 1 to 2 mg/kg, iv infused for 10 to 20 hrs by LC-MS/MS analysis; conditions: in vivo
# [12] = Drug concentration in total skeletal muscle in Wistar Han rat at 1 to 2 mg/kg, iv infused for 10 to 20 hrs by LC-MS/MS analysis; conditions: in vivo
# [13] = Unbound tissue partition coefficient, ratio of drug level in heart to plasma in Wistar Han rat at 1 to 2 mg/kg, iv infused for 10 to 20 hrs by LC-MS/MS analysis; conditions: heart/plasma
# [14] = Unbound tissue partition coefficient, ratio of drug level in brain to plasma in Wistar Han rat at 1 to 2 mg/kg, iv infused for 10 to 20 hrs by LC-MS/MS analysis; conditions: brain/plasma
# [15] = Unbound tissue partition coefficient, ratio of drug level in adipose to plasma in Wistar Han rat at 1 to 2 mg/kg, iv infused for 10 to 20 hrs by LC-MS/MS analysis; conditions: adipose/plasma
# [16] = Unbound tissue partition coefficient, ratio of drug level in liver to plasma in Wistar Han rat at 1 to 2 mg/kg, iv infused for 10 to 20 hrs by LC-MS/MS analysis; conditions: liver/plasma
# [17] = Unbound tissue partition coefficient, ratio of drug level in skeletal muscle to plasma in Wistar Han rat at 1 to 2 mg/kg, iv infused for 10 to 20 hrs by LC-MS/MS analysis; conditions: skeletal muscle/plasma
# [18] = Apparent permeability of the compound across dog RRCK cells by MDCK-LE assay
SMILES,"fraction unbound at 6 h, 2 µM [1]","fraction unbound at 6 h, 2 µM [2]","fraction unbound at 6 h, 2 µM [3]","fraction unbound at 6 h, 2 µM [4]","fraction unbound at 6 h, 2 µM [5]","fraction unbound at 6 h, 2 µM [6]",Cp [7],Ct [8],Ct [9],Ct [10],Ct [11],Ct [12],Kp uu [13],Kp uu [14],Kp uu [15],Kp uu [16],Kp uu [17],Papp [18]
Oc1noc2cc(Cl)c(Cl)cc12,0.00445,0.714,0.103,0.13,0.105,0.153,500 ng/mL,29 ng/mL,24 ng/mL,180 ng/mL,4.7 ng/mL,17 ng/mL,10,1.1,9.7,0.22,1.2,29 ×10⁻⁶ cm/s
C[C@H](c1nc2cnc(N3CCC[C@@H](C(=O)N4CCCC4)C3)nc2[nH]1)n1cc(Cl)cn1,0.186,0.256,0.155,0.121,0.111,0.0901,50 ng/mL,39 ng/mL,1.8 ng/mL,120 ng/mL,240 ng/mL,56 ng/mL,1.5,0.013,1.1,2.8,0.54,24 ×10⁻⁶ cm/s
Cn1ncc(-c2ccc(C(=O)N(c3ncccc3Cl)[C@@H]3CCCNC3)cc2)c1C(=O)O,0.692,0.736,1,1,0.287,0.595,55 ng/mL,5.4 ng/mL,6.8 ng/mL,210 ng/mL,630 ng/mL,7.4 ng/mL,5.3,0.16,0.21,5,0.1,0.51 ×10⁻⁶ cm/s
CC(C)C[C@H](Nc1ccc(C(=O)NCCC(=O)O)cn1)c1ccc(-c2ccc(C(F)(F)F)cn2)cc1,0.0141,0.119,0.00795,0.00934,0.00684,0.011,45 ng/mL,0.77 ng/mL,0.95 ng/mL,45 ng/mL,1000 ng/mL,0.8 ng/mL,0.57,0.0042,0.024,12,0.02,0.1 ×10⁻⁶ cm/s
CO[C@@H]1C[C@H](C(=O)Nc2ccc(-n3cc(Cl)ccc3=O)cc2F)N(C(=O)Nc2ccc(Cl)cc2)C1,0.0543,0.177,0.0391,0.0772,0.0949,0.0842,120 ng/mL,300 ng/mL,10 ng/mL,960 ng/mL,600 ng/mL,180 ng/mL,11,0.064,7.9,8.6,2.4,21 ×10⁻⁶ cm/s
Cc1ccc(NC(=O)N2CCN(Cc3sc4ccccc4c3C)CC2)nc1,0.0044,0.00709,0.0099,0.00576,0.0191,0.0067,92 ng/mL,240 ng/mL,91 ng/mL,130 ng/mL,630 ng/mL,37 ng/mL,1.9,2.5,4.8,31,0.65,25 ×10⁻⁶ cm/s
CS(=O)(=O)c1cccc(C(=O)O)c1,0.373,0.516,1,0.422,0.628,0.865,130 ng/mL,0.77 ng/mL,1 ng/mL,40 ng/mL,190 ng/mL,14 ng/mL,0.39,0.02,0.024,2.4,0.27,12 ×10⁻⁶ cm/s
"O=C(O)c1nc2cc(Cl)c(Cl)cc2nc1O [6,7-DICHLORO-3-HYDROXY-2-QUINOXALINECARBOXYLIC ACID]",0.0414,0.476,1,0.284,0.24,0.435,56 ng/mL,0.77 ng/mL,0.38 ng/mL,12 ng/mL,17 ng/mL,5.3 ng/mL,1.8,0.0018,0.024,2,1.1,1.3 ×10⁻⁶ cm/s

# Further lines, results first:
"fraction unbound at 6 h, 2 µM [1]","fraction unbound at 6 h, 2 µM [2]","fraction unbound at 6 h, 2 µM [3]","fraction unbound at 6 h, 2 µM [4]","fraction unbound at 6 h, 2 µM [5]","fraction unbound at 6 h, 2 µM [6]",Cp [7],Ct [8],Ct [9],Ct [10],Ct [11],Ct [12],Kp uu [13],Kp uu [14],Kp uu [15],Kp uu [16],Kp uu [17],Papp [18],SMILES
0.00041,0.000192,8.38e-05,0.000104,0.000706,5.36e-05,240 ng/mL,410 ng/mL,31 ng/mL,620 ng/mL,730 ng/mL,240 ng/mL,0.68,0.028,0.87,5.6,0.14,0.1 ×10⁻⁶ cm/s,C[C@H](CN1CCOCC1)n1/c(=N\C(N)=O)[nH]c2cc(/C=C3\c4ccccc4COc4cc(F)ccc43)ccc21 [LY2623091]
0.00392,0.0593,0.00714,0.00722,0.00845,0.00926,410 ng/mL,18 ng/mL,5.8 ng/mL,200 ng/mL,2400 ng/mL,58 ng/mL,0.91,0.026,0.69,13,0.33,8.5 ×10⁻⁶ cm/s,CCC[C@H](Oc1cc(C)c(-n2cc(C(F)(F)F)cn2)c(C)c1)c1ccc(C(=O)NCCC(=O)O)cc1 [PF-06291874]
0.686,0.541,0.239,0.237,0.237,0.676,160 ng/mL,30 ng/mL,87 ng/mL,190 ng/mL,290 ng/mL,160 ng/mL,0.39,0.19,0.14,0.63,0.99,0.27 ×10⁻⁶ cm/s,"CCCn1cnc(C[C@H](CCCN)C(=O)O)c1 [UK-396,082]"
